Experimental data reported in the PolyMetriX glass transition set.
± gives the standard deviation of the reports.

First: *CCCCCCCN1C(=O)c2ccc(C(c3ccc4c(c3)C(=O)N(*)C4=O)(C(F)(F)F)C(F)(F)F)cc2C1=O (repeat unit)
Second: *CCCCCCCCCCCC(=O)Oc1ccc(C(C)(C)c2ccc(OC(=O)c3ccc4c(c3)C(=O)N(*)C4=O)cc2)cc1 (repeat unit)
The glass transition temperature of the first is higher: 165.00 °C for the first, 93.00 °C for the second.

Compared with *Oc1ccc(C(c2ccc(Oc3ccc(C(=O)c4ccc(P(=O)(c5ccccc5)c5ccc(C(=O)c6ccc(*)cc6)cc5)cc4)cc3)cc2)(C(F)(F)F)C(F)(F)F)cc1 (repeat unit), *Oc1ccc(C(C)(C)c2ccc(Oc3ccc(C(=O)c4ccc(-c5ccc(C(=O)c6ccc(*)cc6)cc5)cc4)cc3)cc2)cc1 (repeat unit) is lower in glass transition temperature: 207.00 °C for the first, 186.00 °C for the second.

First: *CCN(CCOC(=O)c1ccc(C(=O)O*)cc1)c1ccc(/N=N/c2ccc(-c3nc4ccc([N+](=O)[O-])cc4n3CC)cc2)cc1 (repeat unit)
Second: *c1ccc(NC(=O)c2ccc(OCCOc3ccc(C(=O)Nc4ccc5[nH]c(*)nc5c4)cc3)cc2)cc1 (repeat unit)
The glass transition temperature of the first is lower: 149.00 °C for the first, 225.00 °C for the second.

Compared with *CC(*)C(=O)OCCc1ccccc1 (repeat unit), *OC(CCc1ccccc1)CC(*)=O (repeat unit) is higher in glass transition temperature: -3.00 °C for the first, 18.00 °C for the second.

Compared with */C=C/c1ccc(/C=C/[Si](C)(CCC(F)(F)F)c2ccc([Si](*)(C)CCC(F)(F)F)cc2)cc1 (repeat unit), *Oc1ccc(C(c2ccc(OC(*)=O)cc2)(C(F)(F)F)C(F)(F)F)cc1 (repeat unit) is higher in glass transition temperature: 55.70 °C for the first, 176.00 °C for the second.

First: *c1cccc(C(=O)Nc2cccc(S(=O)(=O)c3cccc(NC(=O)c4cccc(N5C(=O)c6ccc(-c7cccc8c7C(=O)N(*)C8=O)cc6C5=O)c4)c3)c2)c1 (repeat unit)
Second: *C(=O)Nc1nc(NC(=O)c2ccc3c(c2)C(=O)N(c2ccc(Oc4cccc5c(N6C(=O)c7ccc(*)cc7C6=O)cccc45)cc2)C3=O)nc(-c2ccccc2)n1 (repeat unit)
The glass transition temperature of the first is lower: 261.00 °C for the first, 291.00 °C for the second.

First: *C(=O)c1ccc2c(c1)C(=O)N(c1ccc(-c3cc(-c4ccc(OC)cc4)cc(-c4ccc(N5C(=O)c6ccc(*)cc6C5=O)cc4)n3)cc1)C2=O (repeat unit)
Second: *C(=O)c1ccc2c(c1)C(=O)N(c1ccc(C(c3ccccc3)(c3ccc(N4C(=O)c5ccc(*)cc5C4=O)cc3)C(F)(F)F)cc1)C2=O (repeat unit)
The glass transition temperature of the first is higher: 331.00 °C for the first, 311.00 °C for the second.

First: *CC(*)(C)C(=O)OCCCCCCCCCCCOc1ccc(/N=N/c2ccc(OC(=O)c3ccc4c(c3)OCCOCCOCCOCCO4)cc2)cc1 (repeat unit)
Second: *Oc1ccc(CC(NC(=O)CCc2ccc(OC(=O)CCCCC(*)=O)cc2)C(=O)OCCCCCCCCCCCC)cc1 (repeat unit)
The glass transition temperature of the first is higher: 59.00 °C for the first, 22.00 °C for the second.

First: *Oc1ccc(OC(=O)c2ccc(OC(=O)c3ccc(C(=O)Oc4ccc(C(*)=O)cc4)cc3)cc2)cc1 (repeat unit)
Second: *Oc1ccc(-c2ccc(OC(=O)c3ccc(C(*)=O)cc3)cc2)cc1 (repeat unit)
The glass transition temperature of the first is higher: 283.00 °C for the first, 267.00 °C for the second.

First: *CC(*)C(=O)OCCSCC (repeat unit)
Second: *CC(*)(C)C(=O)OCCCl (repeat unit) [Poly(2-chloroethyl methacrylate) ]
The glass transition temperature of the first is lower: -71.00 °C for the first, 90 ± 16 °C for the second.

First: *CC(*)c1cccc(C)n1 (repeat unit)
Second: *CC(c1ccccc1)C1C(=O)N(C(C)(C)C)C(=O)C1* (repeat unit)
The glass transition temperature of the first is lower: 92.00 °C for the first, 178.00 °C for the second.

Compared with *CCC[Si](*)(C)C[Si](C)(C)C (repeat unit), *CCCN(*)C(C)=O (repeat unit) is higher in glass transition temperature: -51.00 °C for the first, 30.00 °C for the second.

Compared with *CCCCCCOC(=O)C(CCCCCCCCCCP(=O)(OCC)OCC)C(=O)OCCCCCCOc1ccc(-n2on2-c2ccc(O*)cc2)cc1 (repeat unit), *CCCCCCCCCCCCOC(=O)Nc1ccc(Cc2ccc(NC(=O)O*)cc2)cc1 (repeat unit) is higher in glass transition temperature: 9.00 °C for the first, 43.00 °C for the second.

Going from *CCOC(=O)Nc1ccc(CCCCc2ccc(NC(=O)O*)cc2)cc1 (repeat unit) to *CC(O)COC(=O)CCCCC(=O)OCC(O)COc1ccc(/C=C(\C)c2ccc(O*)cc2)cc1 (repeat unit), the glass transition temperature falls from 105.70 °C to 33.00 °C.

Compared with *CC(*)(C)C(=O)OCC(F)(F)C(F)F (repeat unit) [Poly(2,2,3,3-tetrafluoropropyl methacrylate)], *CC(OCC)C(C)(C(=O)OC)C(*)(C)C(=O)OC (repeat unit) is higher in glass transition temperature: 75.42 ± 6.5 °C for the first, 131.00 °C for the second.

Compared with *C(=O)Nc1cc(NC(=O)c2ccc3c(c2)C(=O)N(c2cc(-c4nnc(-c5ccccn5)o4)cc(N4C(=O)c5ccc(*)cc5C4=O)c2)C3=O)cc(-c2nnc(-c3ccccn3)o2)c1 (repeat unit), *C(=O)Nc1ccc(Cc2ccc(NC(=O)c3ccc4c(c3)C(=O)N(c3ccc(NC(=O)Nc5ccc(N6C(=O)c7ccc(*)cc7C6=O)cc5)cc3)C4=O)cc2)cc1 (repeat unit) is higher in glass transition temperature: 164.00 °C for the first, 211.00 °C for the second.

Compared with *CCCCCOc1ccc(OCCCCCc2nnc(-c3ccc(-c4nnc(*)o4)cc3)o2)c(C)c1 (repeat unit), *CCCCCCCCCCCc1nc2ccc(-c3ccc4nc(*)oc4c3)cc2o1 (repeat unit) is lower in glass transition temperature: 95.00 °C for the first, 62.00 °C for the second.

Compared with *c1ccc(N2C(=O)CC(C3C=C(C)C4C(=O)N(*)C(=O)C4C3)C2=O)cc1 (repeat unit), *c1ccc(Oc2ccc(N3C(=O)c4ccc(Oc5ccc(C(C)(C)c6ccc(Oc7ccc8c(c7)C(=O)N(*)C8=O)cc6)cc5)cc4C3=O)cc2)cc1 (repeat unit) is lower in glass transition temperature: 327.00 °C for the first, 215.00 °C for the second.

Compared with *NC1CCC(CC2CCC(NC(=O)CCCCCCCCCCCCC(*)=O)CC2)CC1 (repeat unit), *CCCCCCCCCCCC(=O)N(*)C (repeat unit) is lower in glass transition temperature: 131.00 °C for the first, -29.00 °C for the second.

Compared with *CCCCCCN1C(=O)C(C)C(SCCOCCSC2C(=O)N(CCCCCCN3C(=O)CC(C)(SCCOCCSC4(C)CC(=O)N(*)C4=O)C3=O)C(=O)C2C)C1=O (repeat unit), *CC(*)(C)C(=O)OCc1ccc2c(c1)c1ccccc1n2CCCCCCCCCCCCCC (repeat unit) is lower in glass transition temperature: 78.00 °C for the first, 26.00 °C for the second.

Going from *c1ccc(-c2cc(CCCCCCCC)c(-c3ccc(-c4ccc(-c5sc(-c6ccc([Si](CCCC)(CCCC)[Si](*)(CCCC)CCCC)s6)cc5CCCCCCCC)s4)s3)s2)s1 (repeat unit) to *O[Si](C)(C)COC(=O)CCCCCCCCC(=O)Oc1ccc(S(=O)(=O)c2ccc(Oc3ccc(/C=C4\CC/C(=C\c5ccc(Oc6ccc(S(=O)(=O)c7ccc(OC(=O)CCCCCCCCC(=O)OC[Si](*)(C)C)cc7)cc6)cc5)C4=O)cc3)cc2)cc1 (repeat unit), the glass transition temperature rises from -10.00 °C to 73.00 °C.

First: *Oc1c(Br)cc(C(c2cc(Br)c(OC(*)=O)c(Br)c2)(C(F)(F)F)C(F)(F)F)cc1Br (repeat unit)
Second: *Oc1cccc(C(F)(F)C(F)(F)C(F)(F)c2cccc(OC(=O)c3cccc(C(F)(F)C(F)(F)C(F)(F)c4cccc(C(*)=O)c4)c3)c2)c1 (repeat unit)
The glass transition temperature of the first is higher: 206.00 °C for the first, 74.00 °C for the second.

Compared with *C(F)(F)C1(*)OC(F)(F)C(F)(F)O1 (repeat unit), *C(*)(F)F (repeat unit) [Poly(tetrafluoroethylene)] is higher in glass transition temperature: 108.00 °C for the first, 118.42 ± 2.2 °C for the second.

Going from *c1cccc(N2C(=O)c3ccc(Oc4cc5ccccc5cc4Oc4ccc5c(c4)C(=O)N(*)C5=O)cc3C2=O)c1 (repeat unit) to *c1ccc(-c2cc(-c3ccc(-c4ccccc4)cc3)cc(-c3ccc(N4C(=O)c5ccc(NC(=O)Nc6ccc(NC(=O)Nc7ccc8c(c7)C(=O)N(*)C8=O)cc6)cc5C4=O)cc3)n2)cc1 (repeat unit), the glass transition temperature rises from 237.00 °C to 243.00 °C.

Going from *CC(COc1ccc(C2CCCC(CC)(c3ccc(O*)cc3)C2)cc1)OC(C)=O (repeat unit) to *OC(COC(*)=O)COc1ccccc1 (repeat unit), the glass transition temperature falls from 107.00 °C to 45.00 °C.

Compared with *Nc1ccc(C(=O)c2c(C)c(C)c(C(=O)c3ccc(NC(=O)c4ccc(C(*)=O)cc4)cc3)c(C)c2C)cc1 (repeat unit), *Oc1cccc(Oc2ccc(S(=O)(=O)c3ccc(Oc4ccc(C(=O)c5ccc(*)cc5)cc4)cc3)cc2)c1 (repeat unit) is lower in glass transition temperature: 345.00 °C for the first, 167.00 °C for the second.

Going from */C(=C(/*)c1ccc([Si](C(C)C)(C(C)C)C(C)C)cc1)c1ccccc1 (repeat unit) to *C(=O)c1ccc2nc(-c3ccc(-c4nc5ccc(*)cc5nc4-c4ccccc4)cc3)c(-c3ccccc3)nc2c1 (repeat unit), the glass transition temperature rises from 250.00 °C to 325.00 °C.

First: *Cc1cccc(C[n+]2ccc(-c3cc[n+](*)cc3)cc2)c1 (repeat unit)
Second: *CC(*)(C)C(=O)OCc1ccc2c(c1)c1ccccc1n2CCCC (repeat unit)
The glass transition temperature of the first is higher: 128.00 °C for the first, 87.00 °C for the second.

Compared with *CCCCCCCCCCOc1ccc(/C=C2\CCC/C(=C\c3ccc(O*)c(OC)c3)C2=O)cc1OC (repeat unit), *CCCC1(CCCNC(=O)CCCCCCCCC(=O)N*)c2ccccc2-c2ccccc21 (repeat unit) is higher in glass transition temperature: 60.00 °C for the first, 85.00 °C for the second.

Compared with *C1C2CC(C1*)C([Si](C)(C)C)C2 (repeat unit), *Cc1cc(C(C)(C)C)cc(*)c1O (repeat unit) is lower in glass transition temperature: 303.00 °C for the first, 50.00 °C for the second.

Going from *c1ccc(Oc2ccc(Oc3ccc(-c4nc(*)nc(-c5ccccc5)n4)cc3)cc2)cc1 (repeat unit) to *Oc1ccc(C(C)(C)c2ccc(Oc3ccc(C(=O)c4c(C(=O)c5ccc(*)cc5)c(-c5ccc(F)cc5)c(-c5ccc(F)cc5)c(-c5ccc(F)cc5)c4-c4ccc(F)cc4)cc3)cc2)cc1 (repeat unit), the glass transition temperature rises from 244.00 °C to 252.00 °C.

Compared with *CC(CCCCCCCCCC)O* (repeat unit), *c1cc(SCCCCCC)c(*)s1 (repeat unit) is higher in glass transition temperature: -41.00 °C for the first, 32.00 °C for the second.

Compared with *CCCNC(=O)c1ccc(C(=O)N*)cc1 (repeat unit), *N=P(N=P(N=S(*)(=O)NC)(NC)NC)(NC)NC (repeat unit) is lower in glass transition temperature: 180.00 °C for the first, 22.00 °C for the second.
